Data taken from patent publication US10457687B2, “Aminoacid derivatives, a process for their preparation and pharmaceutical compositions containing them” (LES LABORATOIRES SERVIER, priority 2015, dated 2019).

Molecular target: Mcl-1 protein (Homo sapiens, UniProt Q07820)
Assay: Inhibition of Mcl-1 by the fluorescence polarisation technique (Method 1 or Method 2)
Assay type: binding
Settings: for IC50: fluorescence polarisation, Fluorescein labelled ligand, Method 1 (not underlined) or Method 2 (underlined), read-out: IC50 (μM) Mcl-1 FP; for percentage fluorescence polarisation inhibition, Mcl-1 FP: partial inhibitors
Summary of the method: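 Binding measured by FP, with Mcl-1 protein and fluorescein-labelled ligand mixed with compounds in an 11-point series at 5% final DMSO. Method 2 used 10 nM each of protein and ligand in phosphate buffer (20 mM Na2HPO4, 1 mM EDTA, 50 mM NaCl, pH 7.4); Method 1 used 5 nM protein, 1 nM ligand in HEPES buffer (10 mM HEPES, 150 mM NaCl, 0.05% Tween 20, pH 7.4).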

Sequence of Mcl-1 protein (Q07820 whole entry): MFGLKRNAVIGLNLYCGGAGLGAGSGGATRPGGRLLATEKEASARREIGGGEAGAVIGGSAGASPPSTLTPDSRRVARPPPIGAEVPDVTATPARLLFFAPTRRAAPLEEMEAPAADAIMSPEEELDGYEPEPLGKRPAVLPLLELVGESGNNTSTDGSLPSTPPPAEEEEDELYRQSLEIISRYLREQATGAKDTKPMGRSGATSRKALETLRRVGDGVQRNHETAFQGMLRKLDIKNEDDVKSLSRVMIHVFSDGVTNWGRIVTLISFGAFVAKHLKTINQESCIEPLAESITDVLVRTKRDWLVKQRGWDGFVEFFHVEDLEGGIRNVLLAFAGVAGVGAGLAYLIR

SMILES	IC50	other results
CCc1sc2ncnc(N[C@H](Cc3ccccc3)C(=O)O)c2c1-c1cccc2[nH]ncc12 [Example 98, N-[6-ethyl-5-(1H-indazol-4-yl)thieno[2,3-d]pyrimidin-4-yl]-D-phenylalanine]	2.87 µM	
CC(O)c1sc2ncnc(N[C@H](Cc3ccccc3)C(=O)O)c2c1-c1cccc2ccccc12 (single isomer, unassigned) [Example 203, N-[6-(1-hydroxyethyl)-5-(naphthalen-1-yl)thieno[2,3-d]pyrimidin-4-yl]-D-phenylalanine]		percentage fluorescence polarisation inhibition, Mcl-1 FP (@ 100 μM test compound, 100 µM): 71.85% @ 100 μM
CCc1sc2ncnc(NC(CC3CCCCC3)C(=O)O)c2c1-c1cccc2ccccc12 [Example 166, 3-cyclohexyl-N-[6-ethyl-(5Sa)-5-(naphthalen-1-yl)thieno[2,3-d]pyrimidin-4-yl]-D-alanine]	0.064 µM	
COc1ccccc1C[C@@H](Nc1ncnc2sc(C(C)C)c(-c3cccc(Cl)c3C)c12)C(=O)O [Example 222, N-[(5Ra)-5-(3-chloro-2-methylphenyl)-6-(propan-2-yl)thieno[2,3-d]pyrimidin-4-yl]-2-methoxy-D-phenylalanine]		percentage fluorescence polarisation inhibition, Mcl-1 FP (@ 50 μM test compound): 70% @ 50 μM
CCc1sc2ncnc(N[C@H](CC3CCCCC3)C(=O)O)c2c1-c1cccc2[nH]ccc12 (single isomer, unassigned) [Example 242, 3-cyclohexyl-N-[6-ethyl-5-(1H-indol-4-yl)thieno[2,3-d]pyrimidin-4-yl]-D-alanine]	0.091 µM	
O=C(O)[C@@H](Cc1ccccc1)Nc1ncnc2sc(CO)c(-c3cccc4ccccc34)c12 [Example 197, N-[6-(hydroxymethyl)-(5Ra)-5-(naphthalen-1-yl)thieno[2,3-d]pyrimidin-4-yl]-D-phenylalanine]		percentage fluorescence polarisation inhibition, Mcl-1 FP (@ 200 μM test compound): 54.1% @ 200 μM
O=C(O)C(Cc1ccccc1)Nc1ncnc2sc(CO)c(-c3cccc4ccccc34)c12 [Example 198, N-[6-(hydroxymethyl)-(5Sa)-5-(naphthalen-1-yl)thieno[2,3-d]pyrimidin-4-yl]-D-phenylalanine]	9.86 µM	
CCc1sc2ncnc(N[C@@H](Cc3ccccc3)C(=O)O)c2c1-c1ccc(OCCN(C)C)c(Cl)c1C [Example 58, N-((5Ra)-5-{3-chloro-4-[2-(dimethylamino)ethoxy]-2-methylphenyl}-6-ethylthieno[2,3-d]pyrimidin-4-yl)-L-phenylalanine]		percentage fluorescence polarisation inhibition, Mcl-1 FP (@ 10 μM test compound): 52.8% @ 10 μM
CCc1sc2ncnc(N[C@H](Cc3cn(C)cn3)C(=O)O)c2c1-c1cccc2ccccc12 [Example 194, N-[6-ethyl-5-(naphthalen-1-yl)thieno[2,3-d]pyrimidin-4-yl]-1-methyl-D-histidine]	1.75 µM	
CCc1sc2ncnc(N[C@H](Cc3ccccc3)C(=O)O)c2c1-c1cccc2cnn(C)c12 [Example 89, N-[6-ethyl-(5Ra)-5-(1-methyl-1H-indazol-7-yl)thieno[2,3-d]pyrimidin-4-yl]-D-phenylalanine]		percentage fluorescence polarisation inhibition, Mcl-1 FP (@ 200 μM test compound): 72.13% @ 200 μM
CCc1sc2ncnc(N[C@H](Cc3ccccc3)C(=O)O)c2c1-c1cccc(F)c1C [Example 68, N-[6-ethyl-5-(3-fluoro-2-methylphenyl)thieno[2,3-d]pyrimidin-4-yl]-D-phenylalanine]	0.142 µM	
CC=Cc1sc2ncnc(NC(Cc3ccccc3)C(=O)O)c2c1-c1cccc2ccccc12 [Example 108, N-{(5Sa)-5-(naphthalen-1-yl)-6-[(1E)-prop-1-en-1-yl]thieno[2,3-d]pyrimidin-4-yl}-D-phenylalanine]	0.079 µM	
CCc1sc2ncnc(NC(Cc3ccccc3F)C(=O)O)c2c1-c1cccc2ccccc12 [Example 180, N-[6-ethyl-(5Ra)-5-(naphthalen-1-yl)thieno[2,3-d]pyrimidin-4-yl]-2-fluoro-D-phenylalanine]	2.1 µM	
CCc1sc2ncnc(N[C@H](Cc3ccccc3)C(=O)O)c2c1-c1cccc2ncccc12 [Example 80, N-[6-ethyl-5-(quinolin-5-yl)thieno[2,3-d]pyrimidin-4-yl]-D-phenylalanine]	0.487 µM	
CCc1sc2ncnc(N[C@H](Cc3cn(Cc4ccccc4)cn3)C(=O)O)c2c1-c1cccc2ccccc12 [Example 195, 1-benzyl-N-[6-ethyl-5-(naphthalen-1-yl)thieno[2,3-d]pyrimidin-4-yl]-D-histidine]	14.2 µM	
CCc1sc2ncnc(N[C@@H](Cn3cccn3)C(=O)O)c2c1-c1cccc(Cl)c1C (racemic) [Example 110, N-[5-(3-chloro-2-methylphenyl)-6-ethylthieno[2,3-d]pyrimidin-4-yl]-3-(1H-pyrazol-1-yl)alanine]	0.839 µM	
CCc1sc2ncnc(NC(Cc3ccccc3)C(=O)O)c2c1-c1ccc(OCCO)c(Cl)c1C [Example 56, N-{(5Sa)-5-[3-chloro-4-(2-hydroxyethoxy)-2-methylphenyl]-6-ethylthieno[2,3-d]pyrimidin-4-yl}-D-phenylalanine]	0.019 µM	
CCc1sc2ncnc(NC(Cc3ccccc3)C(=O)O)c2c1-c1cccc2cnn(C)c12 [Example 88, N-[6-ethyl-(5Sa)-5-(1-methyl-1H-indazol-7-yl)thieno[2,3-d]pyrimidin-4-yl]-D-phenylalanine]	1.23 µM	
C/C=C\c1sc2ncnc(N[C@H](Cc3ccccc3)C(=O)O)c2c1-c1cccc2ccccc12 [Example 105, N-[(5Ra)-5-(naphthalen-1-yl)-6-((1Z)-prop-1-en-1-yl)thieno[2,3-d]pyrimidin-4-yl]-D-phenylalanine]	0.704 µM	
CCc1sc2ncnc(NC(Cc3ccccc3OCCCN(C)C)C(=O)O)c2c1-c1cccc(Cl)c1C [Example 158, N-[(5Sa)-5-(3-chloro-2-methylphenyl)-6-ethylthieno[2,3-d]pyrimidin-4-yl]-2-[3-(dimethylamino)propoxy]-D-phenylalanine]	0.104 µM	
CCc1sc2ncnc(NC(Cc3ccccc3)C(=O)O)c2c1-c1cccc2ccccc12 [Example 101, N-[6-ethyl-(5Sa)-5-(naphthalen-1-yl)thieno[2,3-d]pyrimidin-4-yl]-D-phenylalanine]	0.462 µM	
COc1ccccc1-c1nccc(COc2ccccc2CC(Nc2ncnc3sc(-c4ccc(F)cc4)c(-c4ccc(OCCN5CCN(C)CC5)c(Cl)c4C)c23)C(=O)O)n1 [Example 7, N-[(5Sa)-5-{3-chloro-2-methyl-4-[2-(4-methylpiperazin-1-yl)ethoxy]phenyl}-6-(4-fluorophenyl)thieno[2,3-d]pyrimidin-4-yl]-2-{[2-(2-methoxyphenyl)pyrimidin-4-yl]methoxy}-D-phenylalanine]	0.008 µM	
CCc1sc2ncnc(NC(Cc3ccccc3)C(=O)O)c2c1-c1ccc(OCCN(C)C)c(Cl)c1C [Example 59, N-((5Sa)-5-{3-chloro-4-[2-(dimethylamino)ethoxy]-2-methylphenyl}-6-ethylthieno[2,3-d]pyrimidin-4-yl)-L-phenylalanine]	0.127 µM	
CCc1sc2ncnc(N[C@H](Cc3cccc4ccccc34)C(=O)O)c2c1-c1cccc2ccccc12 (single isomer, unassigned) [Example 187, N-[6-ethyl-5-(naphthalen-1-yl)thieno[2,3-d]pyrimidin-4-yl]-3-naphthalen-1-yl-D-alanine]	1.39 µM	
CCc1sc2ncnc(N[C@H](Cc3ccccc3C)C(=O)O)c2c1-c1cccc2ccccc12 (single isomer, unassigned) [Example 168, N-[6-ethyl-5-(naphthalen-1-yl)thieno[2,3-d]pyrimidin-4-yl]-2-methyl-D-phenylalanine]	4.78 µM	
